Results published in PubChem BioAssay AID2060904 (Molecular Pharmacology Branch, DTP, NCI, 2025).

Test system: 349418-098-R-PDC complex spheroid viability
Assay: Anticancer human tumor 349418-098-R-PDC patient-derived lung adenocarcinoma cell line growth inhibition [RAS]
Details: for IC50: curve of first compound; for viability, T/C: stronger effect = lower value
Source text: RAS pathway inhibitors in Combinations in Complex Spheroids
A high-throughput screen of multi-cell type tumor spheroids was designed to identify active combinations of RAS pathway inhibitors and targeted small molecules. Complex spheroids include a stromal component modeled by human endothelial cells (HUVEC) and fibroblasts modeled by human mesenchymal stem cells (MSCs). The concentration ranges selected for each drug and investigational agent were based upon clinically achievable concentrations if the clinical Cmax of the agent was known.
Compounds. The drugs and investigational agents: abemaciclib (NSC768073), cobimetinib (NSC768068), divarasib (GDC6063, NSC841802), docetaxel (NSC628503), GDC-1971 (RLY-1971, NSC841576), gemcitabine (NSC613327), inavolisib (NSC800729), ipatasertib (NSC767898), KB-0742 (NSC834161), MRTX-1133 (NSC836407), osimertinib (NSC779217), RMC-4630 (NSC839698), RMC-6236 (NSC851965), RMC-6291 (NSC852671), Ro-3306 (NSC812927), sapanisertib (NSC764658), SN-38 (NSC673596), staurosporine (NSC755774), SY5609 (NSC837396), and tovorafenib (DAY101, NSC766906), were obtained from the National Cancer Institute (NCI) Developmental Therapeutics Program Chemical Repository. The FDA-approved anticancer drug set is available from the NCI Developmental Therapeutics Program. […] The stock solutions were prepared in dimethyl sulfoxide (DMSO, Sigma-Aldrich, St. Louis, MO, cat. D2650) at 800-fold the tested concentration and stored at -70 degrees C prior to their use. All drugs and investigational agents were tested over a range starting from a high concentration at or near the clinical Cmax and decreasing in half-log increments. If the clinical Cmax for an agent had not been determined, the highest concentration tested was 10 microM.
Cell Culture. All cells were maintained in an incubator at 37 degrees C and 5% CO2 with 95% humidity. The PDC lines were cultured according to standard operating procedures established by the NCI PDMR. All PDCs were thawed and cultured in Matrigel-coated flasks prepared with a working solution of 1X Ham's F-12 nutrient mix, without supplementation (Invitrogen, Waltham, MA, cat. 11765054), 100 U/mL penicillin-streptomycin (Invitrogen, cat. 15140122), and 2.5% Matrigel (Corning Inc., Corning, NY, cat. 354248) for the first three passages. The 362531-283-R-J2-PDC and 782815-120-R-J1-PDC lines were cultured in 6C/Colon 1B media, which includes advanced DMEM/F-12 (Thermo Fisher Scientific, cat. 12634028), 10 mM HEPES (Thermo Fisher Scientific, cat. 15630080), 1X GlutaMAX supplement (Thermo Fisher Scientific, cat. 35050061), 0.1 mg/mL primocin (InvivoGen, San Diego, CA, cat. ant-pm-2), 10% defined fetal bovine serum, heat inactivated (HyClone Laboratories Inc., Logan, UT, cat. SH30070.03HI), 50% L-WRN conditioned media (ATCC, cat. CRL-3276), 1.25 mM N-Acetyl-L-cysteine (Sigma-Aldrich, cat. A9165), 10 mM nicotinamide (Sigma-Aldrich, cat. N0636), 1X B-27 supplement (Thermo Fisher Scientific, cat. 17504044), 1X N-2 supplement (Thermo Fisher Scientific, cat. 17502048), 50 ng/mL human EGF (Thermo Fisher Scientific, cat. PHG0311), and 10 microM Y-27632 dihydrochloride (Tocris Bioscience, cat. 1254). The K12877-001-R-J1-PDC line was cultured in 6I media, which includes all 6C/Colon 1B media plus 10 ng/mL human FGF-10 (PeproTech, cat. 100-26), 1 ng/mL human FGF-2 (PeproTech, cat. 100-18B), 1 µM prostaglandin E2 (Tocris Bioscience, cat. 2296), […] hydrocortisone (Sigma-Aldrich, cat. H4001), and […] bovine insulin (Sigma-Aldrich, cat. I6634). The K86415-001-R-J1-PDC line was cultured in 6D media, which includes all 6C/Colon 1B media components minus the L-WRN conditioned media. The 485176-168-R4-J1-PDC was cultured in PANC media, which includes all 6C/Colon 1B media plus 100 ng/mL human FGF-10 (PeproTech, cat. 100-26), 500 nM SB-431542 (Selleckchem, cat. S1067), and 10 nM gastrin (Tocris Bioscience, cat. 3006). […]
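Note: spheroids exposed to compound for seven days before viability readout.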

`CCc1c2c(nc3ccc(O)cc13)-c1cc3c(c(=O)n1C2)COC(=O)[C@]3(O)CC` + CCn1c(-c2cccnc2C(C)OC)c2c3cc(ccc31)N1CCOC(CC(NC(=O)C(C(C)C)N(C)C(=O)C3(F)CCN(C(=O)C#CC(C)(C)N(C)C)CC3)C(=O)N3CCCC(N3)C(=O)OCC(C)(C)C2)C1 was tested, and the IC50 (second compound 0.000949 µM) was 2.21 nM, the IC50 (second compound 0.003 µM) was 2.57 nM and the IC50 (second compound 0.00949 µM) was 2.86 nM. It also gave an IC50 (second compound 0.03 µM) of 2.62 nM, an IC50 (second compound 0.0949 µM) of 2.42 nM and an IC50 (second compound 0.3 µM) of 1.43 nM. For the same compound, the viability, T/C (second compound 0.000949 µM, first compound 0.000949 µM) was 77.2%, the viability, T/C (second compound 0.000949 µM, first compound 0.003 µM) was 40.1% and the viability, T/C (second compound 0.000949 µM, first compound 0.00949 µM) was 10.9%. It also gave a viability, T/C (second compound 0.000949 µM, first compound 0.03 µM) of 4.7%, a viability, T/C (second compound 0.000949 µM, first compound 0.0949 µM) of 2.54% and a viability, T/C (second compound 0.000949 µM, first compound 0.3 µM) of 2.43%. The viability, T/C (second compound 0.003 µM, first compound 0.000949 µM) was 99.5%, the viability, T/C (second compound 0.003 µM, first compound 0.003 µM) was 42.5% and the viability, T/C (second compound 0.003 µM, first compound 0.00949 µM) was 13.3%. For the same compound, the viability, T/C (second compound 0.003 µM, first compound 0.03 µM) was 6.22%, the viability, T/C (second compound 0.003 µM, first compound 0.0949 µM) was 2.99% and the viability, T/C (second compound 0.003 µM, first compound 0.3 µM) was 2.08%. The viability, T/C (second compound 0.00949 µM, first compound 0.000949 µM) was 98.7%, the viability, T/C (second compound 0.00949 µM, first compound 0.003 µM) was 47.9% and the viability, T/C (second compound 0.00949 µM, first compound 0.00949 µM) was 15.6%. The viability, T/C (second compound 0.00949 µM, first compound 0.03 µM) was 5.26%, the viability, T/C (second compound 0.00949 µM, first compound 0.0949 µM) was 2.91% and the viability, T/C (second compound 0.00949 µM, first compound 0.3 µM) was 2.15%. The viability, T/C (second compound 0.03 µM, first compound 0.000949 µM) was 86.4%, the viability, T/C (second compound 0.03 µM, first compound 0.003 µM) was 45.1% and the viability, T/C (second compound 0.03 µM, first compound 0.00949 µM) was 14.1%. The viability, T/C (second compound 0.03 µM, first compound 0.03 µM) was 5.2%, the viability, T/C (second compound 0.03 µM, first compound 0.0949 µM) was 2.57% and the viability, T/C (second compound 0.03 µM, first compound 0.3 µM) was 2.19%. The viability, T/C (second compound 0.0949 µM, first compound 0.000949 µM) was 94.7%, the viability, T/C (second compound 0.0949 µM, first compound 0.003 µM) was 39.9% and the viability, T/C (second compound 0.0949 µM, first compound 0.00949 µM) was 11.3%. The viability, T/C (second compound 0.0949 µM, first compound 0.03 µM) was 5.33%, the viability, T/C (second compound 0.0949 µM, first compound 0.0949 µM) was 2.49% and the viability, T/C (second compound 0.0949 µM, first compound 0.3 µM) was 1.47%. For the same compound, the viability, T/C (second compound 0.3 µM, first compound 0.000949 µM) was 65.3%, the viability, T/C (second compound 0.3 µM, first compound 0.003 µM) was 22.4% and the viability, T/C (second compound 0.3 µM, first compound 0.00949 µM) was 7.03%. It also gave a viability, T/C (second compound 0.3 µM, first compound 0.03 µM) of 4.31%, a viability, T/C (second compound 0.3 µM, first compound 0.0949 µM) of 2.68% and a viability, T/C (second compound 0.3 µM, first compound 0.3 µM) of 1.47%.
